Data: ChEMBL document CHEMBL3588841, “Synthesis and cancer cell growth inhibitory activity of icaritin derivatives” (Eur J Med Chem, 2015)

What was measured:
MCF7 [1] = assay: Cytotoxicity against human MCF7 cells assessed as cell viability by MTT assay; assay type: functional, cell-based
A549 [2] = assay: Cytotoxicity against human A549 cells assessed as cell viability by MTT assay; assay type: functional, cell-based
[3] = Cytotoxicity against human MDA-MB-435S cells assessed as cell viability by MTT assay; assay type: functional, cell-based
Vero = assay: Cytotoxicity against African green monkey Vero cells assessed as cell viability by MTT assay; assay type: cell-based; details: Chlorocebus sabaeus
[4] = Chemical stability of the compound in phosphate buffered saline assessed as decomposition at pH 7; assay type: physicochemical; details: read-out: Drug degradation
A549 [5] = assay: Ratio of tamoxifen to compound for human A549 cells assessed as cell viability by MTT assay; assay type: functional
[6] = Ratio of icaritin to compound for human MDA-MB-435S cells assessed as cell viability by MTT assay; assay type: functional
MCF7 [7] = assay: Ratio of icaritin to compound for human MCF7 cells assessed as cell viability by MTT assay; assay type: functional
A549 [8] = assay: Ratio of icaritin to compound for human A549 cells assessed as cell viability by MTT assay; assay type: functional
[9] = Ratio of tamoxifen to compound for human MDA-MB-435S cells assessed as cell viability by MTT assay; assay type: functional
MCF7 [10] = assay: Ratio of tamoxifen to compound for human MCF7 cells assessed as cell viability by MTT assay; assay type: functional

Row | Structure (SMILES) | IC50 (MCF7 [1]) [µM] | IC50 (A549 [2]) [µM] | IC50 ([3]; Homo sapiens, MDA-MB-435S) [µM] | IC50 (Vero) [µM] | further results
1 | CCOC(=O)C(Oc1cc(O)c2c(=O)c(OC(C(=O)OCC)C(=O)OCC)c(-c3ccc(OC)cc3)oc2c1CC=C(C)C)C(=O)OCC | > 100 | > 100 | 85 |  | 
2 | COc1ccc(-c2oc3c(CC=C(C)C)c(O)cc(O)c3c(=O)c2OCC(=O)O)cc1 | 82.5 | 43.4 | 17.8 |  | 
3 | CCOC(=O)C(C)Oc1cc(O)c2c(=O)c(OC(C)C(=O)OCC)c(-c3ccc(OC)cc3)oc2c1CC=C(C)C (single isomer, unassigned; diastereomer 2) | > 100 | > 100 | > 100 |  | 
4 | COc1ccc(-c2oc3c(CC=C(C)C)c(OCC(=O)O)cc(O)c3c(=O)c2O)cc1 | > 100 | 16.7 | 13.5 |  | 
5 | COc1ccc(-c2oc3c(CC=C(C)C)c(OCC(=O)O)cc(O)c3c(=O)c2OCC(=O)O)cc1 | > 100 | > 100 | > 100 |  | 
6 | COc1ccc(-c2oc3c(CC=C(C)C)c(OCCOC(=O)CCC(=O)O)cc(O)c3c(=O)c2OCCOC(=O)CCC(=O)O)cc1 | > 100 | > 100 | 60.5 |  | 
7 | COc1ccc(-c2oc3c(CC=C(C)C)c(OC(C)C(=O)O)cc(O)c3c(=O)c2O)cc1 (racemic) | > 100 | 15.3 | 5.7 | 19.3 | 
8 | COc1ccc(-c2oc3c(CC=C(C)C)c(O)cc(O)c3c(=O)c2O)cc1 [ICARITIN] | 7 | > 100 | 24.9 | 21.6 | 
9 | COc1ccc(-c2oc3c(CC=C(C)C)c(OC(C)C(=O)O)cc(O)c3c(=O)c2OC(C)C(=O)O)cc1 (stereo in doubt; 3b) |  |  |  |  | IC50 ([3]; mda-mb-435s): 26.7 µM
10 | COc1ccc(-c2oc3c(CC=C(C)C)c(O)cc(O)c3c(=O)c2OC/C=C/C(=O)O)cc1 | 48.9 | 10.7 | 8.3 | 7.1 | 
11 | CCOC(=O)COc1cc(O)c2c(=O)c(OCC(=O)OCC)c(-c3ccc(OC)cc3)oc2c1CC=C(C)C | > 100 | > 100 | > 100 |  | 
12 | CCOC(=O)C(Oc1c(-c2ccc(OC)cc2)oc2c(CC=C(C)C)c(O)cc(O)c2c1=O)C(=O)OCC | 17.2 | 19.3 | 4.4 | 4.4 | 
13 | CCOC(=O)CCCOc1cc(O)c2c(=O)c(OCCCC(=O)OCC)c(-c3ccc(OC)cc3)oc2c1CC=C(C)C | > 100 | > 100 | > 100 |  | 
14 | COc1ccc(-c2oc3c(CC=C(C)C)c(OCCCC(=O)O)cc(O)c3c(=O)c2O)cc1 | > 100 | 19.1 | 12.7 |  | 
15 | CCOC(=O)CCCOc1cc(O)c2c(=O)c(O)c(-c3ccc(OC)cc3)oc2c1CC=C(C)C | > 100 | > 100 | > 100 |  | 
16 | COc1ccc(-c2oc3c(CC=C(C)C)c(OCCO)cc(O)c3c(=O)c2OCCO)cc1 | > 100 | > 100 | > 100 |  | 
17 | COc1ccc(-c2oc3c(CC=C(C)C)c(OCCCO)cc(O)c3c(=O)c2OCCCO)cc1 | > 100 | > 100 | 21.8 |  | 
18 | CCOC(=O)/C=C/COc1cc(O)c2c(=O)c(O)c(-c3ccc(OC)cc3)oc2c1CC=C(C)C | > 100 | > 100 | > 100 |  | 
19 | COc1ccc(-c2oc3c(CC=C(C)C)c(OCCCOC(=O)CCCC(=O)O)cc(O)c3c(=O)c2OCCCOC(=O)CCCC(=O)O)cc1 | 2.2 | 14.3 | 8.1 | 6.3 | degraded [4]: 7%

Row | Structure (SMILES) | IC50 (MCF7 [1]) [µM] | IC50 (A549 [2]) [µM] | IC50 ([3]; Homo sapiens, MDA-MB-435S) [µM] | IC50 (Vero) [µM] | further results
20 | COc1ccc(-c2oc3c(CC=C(C)C)c(OC(C)C(=O)O)cc(O)c3c(=O)c2OC(C)C(=O)O)cc1 (stereo in doubt; 3c) | > 100 | > 100 |  |  | IC50 ([3]; mda-mb-435s): > 100 µM
21 | COc1ccc(-c2oc3c(CC=C(C)C)c(OC/C=C/C(=O)O)cc(O)c3c(=O)c2O)cc1 | > 100 | 22.9 | 11.3 |  | 
22 | COc1ccc(-c2oc3c(CC=C(C)C)c(OCCOC(=O)CCCC(=O)O)cc(O)c3c(=O)c2OCCOC(=O)CCCC(=O)O)cc1 | 3 | 6.1 | 6.3 | > 100 | degraded [4]: 7%
23 | COc1ccc(-c2oc3c(CC=C(C)C)c(OC(C(=O)O)C(=O)O)cc(O)c3c(=O)c2OC(C(=O)O)C(=O)O)cc1 | > 100 | > 100 | 78.9 |  | 
24 | COc1ccc(-c2oc3c(CC=C(C)C)c(OCCCOC(=O)CCC(=O)O)cc(O)c3c(=O)c2OCCCOC(=O)CCC(=O)O)cc1 | > 100 | 18.4 | 6.4 | 14.5 | 
25 | COc1ccc(-c2oc3c(CC=C(C)C)c(O)cc(O)c3c(=O)c2OCCCC(=O)O)cc1 | > 100 | 23.9 | 10 | 55.9 | 
26 | COc1ccc(-c2oc3c(CC=C(C)C)c(O)cc(O)c3c(=O)c2OC(C(=O)O)C(=O)O)cc1 | > 100 | > 100 | > 100 |  | 
27 | COc1ccc(-c2oc3c(CC=C(C)C)c(OCCCC(=O)O)cc(O)c3c(=O)c2OCCCC(=O)O)cc1 | > 100 | 26 | 31.1 |  | 
28 | COc1ccc(-c2oc3c(CC=C(C)C)c(O)cc(O)c3c(=O)c2OC(C)C(=O)O)cc1 (racemic) | > 100 | 40.7 | 7.5 | 36.6 | 
29 | CCOC(=O)COc1cc(O)c2c(=O)c(O)c(-c3ccc(OC)cc3)oc2c1CC=C(C)C | 27.9 | 41.6 | 5.3 | 1.4 | 
30 | CCOC(=O)/C=C/COc1c(-c2ccc(OC)cc2)oc2c(CC=C(C)C)c(O)cc(O)c2c1=O | 10.3 | 4.7 | 2.2 | 3.1 | Ratio (A549 [5]): 2.5; Ratio [6]: 2.5; Ratio (MCF7 [7]): 2.5; Ratio (A549 [8]): 2.5; Ratio [9]: 2.5; Ratio (MCF7 [10]): 2.5
31 | COc1ccc(-c2oc3c(CC=C(C)C)c(OC/C=C/C(=O)O)cc(O)c3c(=O)c2OC/C=C/C(=O)O)cc1 | > 100 | > 100 | 57.5 |  | 
32 | CCOC(=O)C(C)Oc1cc(O)c2c(=O)c(O)c(-c3ccc(OC)cc3)oc2c1CC=C(C)C (racemic) | > 100 | 26.5 | 2.5 | 1.4 | degraded [4]: 25%
33 | CCOC(=O)C(C)Oc1c(-c2ccc(OC)cc2)oc2c(CC=C(C)C)c(O)cc(O)c2c1=O (racemic) | 4.7 | 4.6 | 4.1 | 6.5 | degraded [4]: 7%
34 | CCOC(=O)/C=C/COc1cc(O)c2c(=O)c(OC/C=C/C(=O)OCC)c(-c3ccc(OC)cc3)oc2c1CC=C(C)C | > 100 | > 100 | > 100 |  | 
35 | CC/C(=C(\c1ccccc1)c1ccc(OCCN(C)C)cc1)c1ccccc1 [TAMOXIFEN] | 3.8 | 8.4 | 5.5 | 5.7 | 
36 | CCOC(=O)COc1c(-c2ccc(OC)cc2)oc2c(CC=C(C)C)c(O)cc(O)c2c1=O | > 100 | 65.2 | 30 |  | 
37 | CCOC(=O)CCCOc1c(-c2ccc(OC)cc2)oc2c(CC=C(C)C)c(O)cc(O)c2c1=O | 3 | 11 | 8.8 | 5.8 | 
